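96-well plates; 48 h exposure; 5 concentrations. Endpoints by linear interpolation between flanking doses. Not reached: highest tested concentration assigned. The concentration for 50% growth inhibition is given as GI50.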 Activity calls are given as the source filed them. Cut-off read from the data, not from the text of the source: active = GI50 up to about 1.1 µM and inactive = higher.
Legend:
Experiment in all cases: growth of human tumour cells (NCI), 48 h
RXF 631 = system: RXF 631
LXFL 529 = system: LXFL 529
XF498 = system: XF498
KM-20L2 = system: KM-20L2
HOP-18 = system: HOP-18
DLD-1 = system: DLD-1
SNB-78 = system: SNB-78
DMS-273 = system: DMS-273

Compound	GI50 (RXF 631)	GI50 (LXFL 529)	GI50 (XF498)	GI50 (KM-20L2)	GI50 (HOP-18)	GI50 (DLD-1)	GI50 (SNB-78)	GI50 (DMS-273)
CCOC(=O)Cc1csc(Nc2ccc(OCC)cc2)n1	> 100 µM (inactive)	87.3 µM (inactive)	38.7 µM (inactive)	> 100 µM (inactive)	> 100 µM (inactive)	> 100 µM (inactive)	> 100 µM (inactive)	–
O=C(NCCS(=O)(=O)N1C(=O)C2CCCN2C(=O)[C@@H]1Cc1ccccc1)OCc1ccccc1 (some centres undefined)	45.6 µM (inactive)	34 µM (inactive)	0.838 µM (active)	45.8 µM (inactive)	> 100 µM (inactive)	> 100 µM (inactive)	61.9 µM (inactive)	–
C=C1C[C@]23CCC4C(C)(C)C(=O)CC[C@]4(C)C2C[C@H]1C(O)C3=O (some centres undefined)	> 75 µM (inactive)	> 75 µM (inactive)	> 75 µM (inactive)	> 75 µM (inactive)	> 75 µM (inactive)	> 75 µM (inactive)	> 75 µM (inactive)	–
CCc1cccc(CC)c1NC(=O)CC1SC(N)=NC1=O (centres undefined)	> 100 µM (inactive)	> 100 µM (inactive)	> 100 µM (inactive)	–	> 100 µM (inactive)	–	> 100 µM (inactive)	> 100 µM (inactive)
Cc1cccc(C)c1NC(=O)CCCC(=O)C1/C(=N/NC(=O)CC#N)CCC/C1=N\NC(=O)CC#N (centres undefined)	> 100 µM (inactive)	> 100 µM (inactive)	> 100 µM (inactive)	> 100 µM (inactive)	> 100 µM (inactive)	> 100 µM (inactive)	> 100 µM (inactive)	> 100 µM (inactive)
CC1(C)CCc2cc3c(cc2O1)OCC1c2cc4c(cc2OC31)OCO4 (centres undefined)	55.3 µM (inactive)	> 100 µM (inactive)	52.1 µM (inactive)	> 100 µM (inactive)	> 100 µM (inactive)	> 100 µM (inactive)	–	–
O=C(NCCCN1CCN(CCCNC(=O)c2cccc3ccccc23)CC1)c1cccc2ccccc12	75.7 µM (inactive)	89.7 µM (inactive)	21.9 µM (inactive)	34 µM (inactive)	> 100 µM (inactive)	–	41.3 µM (inactive)	–
C/C=C/C=N/N(C(=O)c1cc([N+](=O)[O-])cc([N+](=O)[O-])c1)C1=NN=C(c2ccccc2)C(c2ccccc2)N1 (centres undefined)	> 100 µM (inactive)	–	36 µM (inactive)	32.1 µM (inactive)	> 100 µM (inactive)	75.7 µM (inactive)	52.8 µM (inactive)	46 µM (inactive)

Source: ChEMBL document CHEMBL1201862, “PubChem BioAssay data set” (2004)
